Laboratory results reported in ChEMBL document CHEMBL1201862, “PubChem BioAssay data set” (2004).
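All cell lines were grown in 96-well plates and treated with compound for 48 hours. GI50 marks 50% less growth.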 The source made the active and inactive calls. No stated cut-off is given here; in the data, active = GI50 up to about 1.1 µM and inactive = higher.

Tests used:
Test in all cases: NCI anticancer screen, dose series, 48 h
NCI-H522 = test system: NCI-H522
HOP-18 = test system: HOP-18
KM12 = test system: KM12
DMS-114 = test system: DMS-114
IGROV-1 = test system: IGROV-1
786-0 = test system: 786-0
M14 = test system: M14
K562 = test system: K562
OVCAR-4 = test system: OVCAR-4
CAKI-1 = test system: CAKI-1
SK-OV-3 = test system: SK-OV-3
NCI-H226 = test system: NCI-H226
EKVX = test system: EKVX
HL-60 = test system: HL-60
CCRF-CEM = test system: CCRF-CEM
SN12C = test system: SN12C
SK-MEL-28 = test system: SK-MEL-28
DMS-273 = test system: DMS-273
SF-268 = test system: SF-268
SNB-78 = test system: SNB-78
KM-20L2 = test system: KM-20L2
SK-MEL-5 = test system: SK-MEL-5
HCT-116 = test system: HCT-116
OVCAR-3 = test system: OVCAR-3
UO-31 = test system: UO-31
A498 = test system: A498
SK-MEL-2 = test system: SK-MEL-2
OVCAR-5 = test system: OVCAR-5
HT-29 = test system: HT-29
HOP-92 = test system: HOP-92
OVCAR-8 = test system: OVCAR-8
SF-539 = test system: SF-539
SF-295 = test system: SF-295
Malme-3M = test system: Malme-3M
SNB-75 = test system: SNB-75
U-251 = test system: U-251
LOX IMVI = test system: LOX IMVI
MOLT-4 = test system: MOLT-4
LXFL 529 = test system: LXFL 529
SW-620 = test system: SW-620
HOP-62 = test system: HOP-62
NCI-H23 = test system: NCI-H23
UACC-62 = test system: UACC-62
SR = test system: SR
NCI-H460 = test system: NCI-H460
ACHN = test system: ACHN
RXF 393 = test system: RXF 393
M19-MEL = test system: M19-MEL
A549 = test system: A549
HCC 2998 = test system: HCC 2998
COLO 205 = test system: COLO 205
SNB-19 = test system: SNB-19
UACC-257 = test system: UACC-257
DLD-1 = test system: DLD-1
HCT-15 = test system: HCT-15
TK-10 = test system: TK-10
XF498 = test system: XF498

Cc1nc(Nc2ccc(Cl)cc2)sc1C(=O)NNC(=O)C(=O)NN was tested, and the GI50 (NCI-H522) was 17.2 µM (inactive), the GI50 (HOP-18) was 16.2 µM (inactive) and the GI50 (KM12) was 18.3 µM (inactive). For the same molecule, the GI50 (DMS-114) was 20.4 µM (inactive), the GI50 (IGROV-1) was 19.1 µM (inactive) and the GI50 (786-0) was 17.3 µM (inactive). For the same molecule, the GI50 (M14) was 18.6 µM (inactive), the GI50 (K562) was 25.1 µM (inactive) and the GI50 (OVCAR-4) was 18.1 µM (inactive). For the same molecule, the GI50 (CAKI-1) was 23.3 µM (inactive), the GI50 (SK-OV-3) was 22 µM (inactive) and the GI50 (NCI-H226) was 20.3 µM (inactive). For the same molecule, the GI50 (EKVX) was 10.4 µM (inactive), the GI50 (HL-60) was 17.4 µM (inactive) and the GI50 (CCRF-CEM) was 22.2 µM (inactive). The GI50 (SN12C) was 16.1 µM (inactive), the GI50 (SK-MEL-28) was 22.8 µM (inactive) and the GI50 (DMS-273) was 19.1 µM (inactive). For the same molecule, the GI50 (SF-268) was 27.8 µM (inactive), the GI50 (SNB-78) was 26.9 µM (inactive) and the GI50 (KM-20L2) was 16.3 µM (inactive). For the same molecule, the GI50 (SK-MEL-5) was 18.7 µM (inactive), the GI50 (HCT-116) was 19.6 µM (inactive) and the GI50 (OVCAR-3) was 21.5 µM (inactive). The GI50 (UO-31) was 16.6 µM (inactive), the GI50 (A498) was 15.7 µM (inactive) and the GI50 (SK-MEL-2) was 17.6 µM (inactive). The GI50 (OVCAR-5) was 17 µM (inactive), the GI50 (HT-29) was 16.6 µM (inactive) and the GI50 (HOP-92) was 19.9 µM (inactive). The GI50 (OVCAR-8) was 32.5 µM (inactive), the GI50 (SF-539) was 26.1 µM (inactive) and the GI50 (SF-295) was 18.2 µM (inactive). The GI50 (Malme-3M) was 21.9 µM (inactive), the GI50 (SNB-75) was 23.7 µM (inactive) and the GI50 (U-251) was 19.1 µM (inactive). The GI50 (LOX IMVI) was 17.6 µM (inactive), the GI50 (MOLT-4) was 19.5 µM (inactive) and the GI50 (LXFL 529) was 18.3 µM (inactive). The GI50 (SW-620) was 18 µM (inactive), the GI50 (HOP-62) was 21.5 µM (inactive) and the GI50 (NCI-H23) was 16.6 µM (inactive). For the same molecule, the GI50 (UACC-62) was 15.3 µM (inactive), the GI50 (SR) was 27.5 µM (inactive) and the GI50 (NCI-H460) was 19.7 µM (inactive). The GI50 (ACHN) was 26.4 µM (inactive), the GI50 (RXF 393) was 24.9 µM (inactive) and the GI50 (M19-MEL) was 19.2 µM (inactive). For the same molecule, the GI50 (A549) was 21 µM (inactive), the GI50 (HCC 2998) was 20 µM (inactive) and the GI50 (COLO 205) was 20.3 µM (inactive). For the same molecule, the GI50 (SNB-19) was 21.3 µM (inactive), the GI50 (UACC-257) was 25.1 µM (inactive) and the GI50 (DLD-1) was 18.5 µM (inactive). The GI50 (HCT-15) was 17.1 µM and the GI50 (TK-10) was 29.5 µM (inactive).

In the case of Nc1cc(C(=O)NC2C3CC4CC(C3)CC2C4)nc(S)n1 (stereo unspecified), the GI50 (NCI-H522) is reported as > 100 µM (inactive), the GI50 (IGROV-1) is reported as > 100 µM (inactive) and the GI50 (786-0) is reported as > 100 µM (inactive). The GI50 (M14) was > 100 µM (inactive), the GI50 (K562) was > 100 µM (inactive) and the GI50 (OVCAR-4) was > 100 µM (inactive). For the same molecule, the GI50 (XF498) was > 100 µM (inactive), the GI50 (CAKI-1) was > 100 µM (inactive) and the GI50 (SK-OV-3) was > 100 µM (inactive). For the same molecule, the GI50 (NCI-H226) was > 100 µM (inactive), the GI50 (EKVX) was > 100 µM (inactive) and the GI50 (HL-60) was > 100 µM (inactive). For the same molecule, the GI50 (CCRF-CEM) was > 100 µM (inactive), the GI50 (SN12C) was > 100 µM (inactive) and the GI50 (SK-MEL-28) was > 100 µM (inactive). For the same molecule, the GI50 (SF-268) was > 100 µM (inactive), the GI50 (SNB-78) was > 100 µM (inactive) and the GI50 (KM-20L2) was > 100 µM (inactive). The GI50 (SK-MEL-5) was > 100 µM (inactive), the GI50 (HCT-116) was > 100 µM (inactive) and the GI50 (OVCAR-3) was > 100 µM (inactive). The GI50 (UO-31) was > 100 µM (inactive), the GI50 (A498) was > 100 µM (inactive) and the GI50 (HT-29) was > 100 µM (inactive). The GI50 (HOP-92) was > 100 µM (inactive), the GI50 (OVCAR-8) was > 100 µM (inactive) and the GI50 (SF-539) was > 100 µM (inactive). The GI50 (Malme-3M) was > 100 µM (inactive), the GI50 (SNB-75) was > 100 µM (inactive) and the GI50 (U-251) was > 100 µM (inactive). For the same molecule, the GI50 (MOLT-4) was > 100 µM (inactive), the GI50 (LXFL 529) was > 100 µM (inactive) and the GI50 (SW-620) was > 100 µM (inactive). For the same molecule, the GI50 (HOP-62) was > 100 µM (inactive), the GI50 (NCI-H23) was > 100 µM (inactive) and the GI50 (SR) was > 100 µM (inactive). The GI50 (NCI-H460) was > 100 µM (inactive), the GI50 (RXF 393) was > 100 µM (inactive) and the GI50 (M19-MEL) was > 100 µM (inactive). The GI50 (A549) was > 100 µM (inactive), the GI50 (HCC 2998) was > 100 µM (inactive) and the GI50 (SNB-19) was > 100 µM (inactive). For the same molecule, the GI50 (UACC-257) was > 100 µM (inactive), the GI50 (DLD-1) was > 100 µM (inactive) and the GI50 (HCT-15) was over 100 µM.
